Active and inactive are the calls of the source.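 Rule for the calls: active = compound whose fitted luminescence drop, meaning cytotoxicity, reaches half effect at most twice its top valid tested dose; inconclusive = flat curve with a moderate drop, or an unreliable fit; inactive = rise instead of drop, flat response, or weaker potency.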
Assay: mouse fibroblast viability loss – cell-based, cherry-pick samples, set 2, cytotoxicity control for T. cruzi growth inhibitor project, dose response (AID 651817)
Conditions: NIH/3T3 viability, ATP luminescence (CellTiter-Glo), 90 h; at 3.8 µM (top of the series)
In the case of `C[C@H]1CN([C@@H](C)CO)C(=O)c2cccc(NC(=O)c3nc4ccccc4s3)c2O[C@@H]1CN(C)S(=O)(=O)c1ccccc1`, the activity change, negative = cytotoxicity is reported as 28.8% (inactive).
For `Cc1ccc(S(=O)(=O)Nc2ccc3c(c2)CC(=O)N([C@H](C)CO)C[C@@H](C)[C@H](CN(C)Cc2ccc(Cl)c(Cl)c2)O3)cc1`, the activity change, negative = cytotoxicity was 33.6% (inactive).

Same assay, conditions: NIH/3T3 viability, ATP luminescence (CellTiter-Glo), 90 h; at 4.2 µM (top of the series)
In the case of `COc1ccc(CN(C)C[C@H]2Oc3c(NC(=O)Nc4ccc(C(F)(F)F)cc4)cccc3C(=O)N([C@H](C)CO)C[C@H]2C)cc1`, the activity change, negative = cytotoxicity is reported as 6.55% (inactive).

Same assay, conditions: NIH/3T3 viability, ATP luminescence (CellTiter-Glo), 90 h; at 19.5 µM (top of the series)
In the case of `C[C@@H]1CN([C@H](C)CO)C(=O)c2cccc(NC(=O)NC3CCCCC3)c2O[C@H]1CN(C)S(=O)(=O)c1ccc(F)cc1`, the activity change, negative = cytotoxicity is reported as 1.29% (inactive).
For `C[C@@H]1CN([C@H](C)CO)C(=O)c2cccc(NC(=O)c3ccncc3)c2O[C@@H]1CN(C)CC1CCCCC1`, the activity change, negative = cytotoxicity was 29% (inactive).
In the case of `Cc1noc(C)c1NC(=O)Nc1cccc2c1O[C@@H](CN(C)S(C)(=O)=O)[C@@H](C)CN([C@H](C)CO)C2=O`, the activity change, negative = cytotoxicity is reported as 13.3% (inactive).
In the case of `C[C@@H]1CN([C@H](C)CO)C(=O)c2cccc(NC(=O)c3nc4ccccc4s3)c2O[C@@H]1CN(C)Cc1ccc2c(c1)OCO2`, the activity change, negative = cytotoxicity is reported as -22.1% (inactive).
With `Cc1ccc(S(=O)(=O)N(C)C[C@@H]2Oc3ccc(NS(=O)(=O)c4ccccc4)cc3CC(=O)N([C@@H](C)CO)C[C@H]2C)cc1` the activity change, negative = cytotoxicity was -8.95% (inactive).
In the case of `Cc1ccc(S(=O)(=O)Nc2ccc3c(c2)CC(=O)N([C@H](C)CO)C[C@@H](C)[C@H](CN(C)Cc2ccc4c(c2)OCO4)O3)cc1`, the activity change, negative = cytotoxicity is reported as 11% (inactive).
For `C[C@H]1CN([C@@H](C)CO)C(=O)Cc2cc(NS(=O)(=O)c3ccccc3)ccc2O[C@H]1CN(C)S(=O)(=O)c1ccc(Cl)cc1`, the activity change, negative = cytotoxicity was -30.3% (inactive).
For `C[C@H](CO)N1C[C@H](C)[C@@H](CN(C)Cc2ccc3c(c2)OCO3)Oc2c(NC(=O)c3ccncc3)cccc2C1=O`, the activity change, negative = cytotoxicity was -18.8% (inactive).
For `C[C@H](CO)N1C[C@H](C)[C@H](CN(C)Cc2ccc(Oc3ccccc3)cc2)Oc2c(NC(=O)c3ccncc3)cccc2C1=O`, the activity change, negative = cytotoxicity was -12.3% (inactive).
In the case of `C[C@@H]1CN([C@H](C)CO)C(=O)c2cccc(NC(=O)c3ccncc3)c2O[C@H]1CN(C)CC1CC1`, the activity change, negative = cytotoxicity is reported as -26.2% (inactive).
With `C[C@@H]1CN([C@H](C)CO)C(=O)c2cccc(NC(=O)c3ccncc3)c2O[C@H]1CN(C)Cc1ccccc1` the activity change, negative = cytotoxicity was 9% (inactive).
For `C[C@@H]1CN([C@@H](C)CO)C(=O)c2cccc(NC(=O)c3nc4ccccc4s3)c2O[C@H]1CN(C)Cc1ccc2c(c1)OCO2`, the activity change, negative = cytotoxicity was -20.2% (inactive).
For `Cc1ccc(S(=O)(=O)N(C)C[C@H]2Oc3c(NC(=O)c4nc5ccccc5s4)cccc3C(=O)N([C@@H](C)CO)C[C@@H]2C)cc1`, the activity change, negative = cytotoxicity was -1.47% (inactive).
In the case of `C[C@@H]1CN([C@@H](C)CO)C(=O)c2cccc(NC(=O)c3ccncc3)c2O[C@@H]1CN(C)Cc1ccc(Cl)c(Cl)c1`, the activity change, negative = cytotoxicity is reported as 33% (inactive).
In the case of `C[C@H](CO)N1C[C@H](C)[C@@H](CN(C)S(=O)(=O)c2ccc(F)cc2)Oc2c(NC(=O)NC3CCCCC3)cccc2C1=O`, the activity change, negative = cytotoxicity is reported as 5.78% (inactive).
In the case of `C[C@@H]1CN([C@@H](C)CO)C(=O)c2cccc(NC(=O)c3ccncc3)c2O[C@H]1CN(C)Cc1ccc(C(F)(F)F)cc1`, the activity change, negative = cytotoxicity is reported as 0.884% (inactive).
With `C[C@@H]1CN([C@@H](C)CO)C(=O)c2cccc(NC(=O)c3nc4ccccc4s3)c2O[C@@H]1CN(C)Cc1ccc2c(c1)OCO2` the activity change, negative = cytotoxicity was 0.748% (inactive).
In the case of `Cc1ccc(S(=O)(=O)N(C)C[C@H]2Oc3ccc(NS(=O)(=O)c4ccccc4)cc3CC(=O)N([C@H](C)CO)C[C@H]2C)cc1`, the activity change, negative = cytotoxicity is reported as -0.01% (inactive).
For `C[C@H](CO)N1C[C@H](C)[C@@H](CN(C)Cc2ccc(Cl)c(Cl)c2)Oc2c(NC(=O)c3ccncc3)cccc2C1=O`, the activity change, negative = cytotoxicity was -21.9% (inactive).
With `C[C@@H]1CN([C@@H](C)CO)C(=O)c2cccc(NC(=O)c3ccncc3)c2O[C@@H]1CN(C)Cc1ccc(C(F)(F)F)cc1` the activity change, negative = cytotoxicity was -16.7% (inactive).
With `C[C@@H]1CN([C@H](C)CO)C(=O)c2cccc(NC(=O)c3nc4ccccc4s3)c2O[C@H]1CN(C)Cc1ccc2c(c1)OCO2` the activity change, negative = cytotoxicity was -10.9% (inactive).
In the case of `Cc1ccc(S(=O)(=O)Nc2ccc3c(c2)CC(=O)N([C@H](C)CO)C[C@@H](C)[C@H](CN(C)S(=O)(=O)c2ccc(Cl)cc2)O3)cc1`, the activity change, negative = cytotoxicity is reported as -23.3% (inactive).
For `C[C@H](CO)N1C[C@H](C)[C@@H](CN(C)S(=O)(=O)c2ccccc2)Oc2c(NC(=O)c3nc4ccccc4s3)cccc2C1=O`, the activity change, negative = cytotoxicity was -18.8% (inactive).
For `C[C@H](CO)N1C[C@H](C)[C@H](CN(C)S(=O)(=O)c2ccc(Cl)cc2)Oc2ccc(NS(=O)(=O)c3ccc(Cl)cc3)cc2CC1=O`, the activity change, negative = cytotoxicity was 7.06% (inactive).
For `Cc1noc(C)c1NC(=O)Nc1cccc2c1O[C@H](CN(C)S(C)(=O)=O)[C@@H](C)CN([C@H](C)CO)C2=O`, the activity change, negative = cytotoxicity was 2.45% (inactive).
With `C[C@@H]1CN([C@@H](C)CO)C(=O)Cc2cc(NS(=O)(=O)c3ccccc3)ccc2O[C@H]1CN(C)S(=O)(=O)c1ccc(Cl)cc1` the activity change, negative = cytotoxicity was 0.768% (inactive).
In the case of `COc1ccc(CN(C)C[C@H]2Oc3c(NC(=O)Nc4ccc(C(F)(F)F)cc4)cccc3C(=O)N([C@@H](C)CO)C[C@H]2C)cc1`, the activity change, negative = cytotoxicity is reported as -11.1% (inactive).
With `C[C@@H]1CN([C@H](C)CO)C(=O)Cc2cc(NS(=O)(=O)c3ccc(Cl)cc3)ccc2O[C@H]1CN(C)Cc1ccc2c(c1)OCO2` the activity change, negative = cytotoxicity was -22% (inactive).
With `COc1ccc(CN(C)C[C@H]2Oc3c(NC(=O)c4ccncc4)cccc3C(=O)N([C@@H](C)CO)C[C@@H]2C)cc1` the activity change, negative = cytotoxicity was 5.41% (inactive).
With `C[C@@H]1CN([C@H](C)CO)C(=O)Cc2cc(NS(=O)(=O)c3ccc(F)cc3)ccc2O[C@@H]1CN(C)Cc1ccc(Cl)c(Cl)c1` the activity change, negative = cytotoxicity was -49.8% (inactive).
In the case of `C[C@@H]1CN([C@@H](C)CO)C(=O)Cc2cc(NS(=O)(=O)c3ccc(Cl)cc3)ccc2O[C@@H]1CN(C)S(=O)(=O)c1ccc(Cl)cc1`, the activity change, negative = cytotoxicity is reported as -14.1% (inactive).
In the case of `Cc1ccc(S(=O)(=O)Nc2ccc3c(c2)CC(=O)N([C@@H](C)CO)C[C@H](C)[C@H](CN(C)S(=O)(=O)c2ccc(Cl)cc2)O3)cc1`, the activity change, negative = cytotoxicity is reported as -3.56% (inactive).
With `C[C@@H]1CN([C@H](C)CO)C(=O)Cc2cc(NS(=O)(=O)c3ccccc3)ccc2O[C@H]1CN(C)S(=O)(=O)c1ccc(Cl)cc1` the activity change, negative = cytotoxicity was -1.38% (inactive).
For `Cc1ccc(S(=O)(=O)N(C)C[C@@H]2Oc3c(NC(=O)c4nc5ccccc5s4)cccc3C(=O)N([C@@H](C)CO)C[C@H]2C)cc1`, the activity change, negative = cytotoxicity was -13.6% (inactive).
For `Cc1noc(C)c1NC(=O)Nc1cccc2c1O[C@@H](CN(C)S(C)(=O)=O)[C@@H](C)CN([C@@H](C)CO)C2=O`, the activity change, negative = cytotoxicity was -35% (inactive).
With `Cc1ccc(S(=O)(=O)Nc2ccc3c(c2)CC(=O)N([C@@H](C)CO)C[C@@H](C)[C@@H](CN(C)Cc2ccccc2)O3)cc1` the activity change, negative = cytotoxicity was -13.8% (inactive).
With `Cc1ccc(S(=O)(=O)Nc2ccc3c(c2)CC(=O)N([C@@H](C)CO)C[C@H](C)[C@H](CN(C)Cc2ccccc2)O3)cc1` the activity change, negative = cytotoxicity was -4.35% (inactive).
With `C[C@H](CO)N1C[C@H](C)[C@@H](CN(C)Cc2ccc(Oc3ccccc3)cc2)Oc2c(NC(=O)c3ccncc3)cccc2C1=O` the activity change, negative = cytotoxicity was 16.4% (inactive).
For `C[C@H]1CN([C@@H](C)CO)C(=O)c2cccc(NC(=O)c3ccncc3)c2O[C@@H]1CN(C)Cc1ccc2c(c1)OCO2`, the activity change, negative = cytotoxicity was -3.23% (inactive).
With `C[C@H]1CN([C@@H](C)CO)C(=O)c2cccc(NC(=O)c3nc4ccccc4s3)c2O[C@H]1CN(C)Cc1ccc2c(c1)OCO2` the activity change, negative = cytotoxicity was -36.3% (inactive).
For `Cc1ccc(S(=O)(=O)N(C)C[C@H]2Oc3c(NC(=O)c4nc5ccccc5s4)cccc3C(=O)N([C@H](C)CO)C[C@H]2C)cc1`, the activity change, negative = cytotoxicity was 14.1% (inactive).
In the case of `C[C@@H]1CN([C@H](C)CO)C(=O)c2cccc(NC(=O)c3nc4ccccc4s3)c2O[C@@H]1CN(C)S(=O)(=O)c1ccc(Cl)cc1`, the activity change, negative = cytotoxicity is reported as 11.5% (inactive).

Same assay, conditions: NIH/3T3 viability, ATP luminescence (CellTiter-Glo), 90 h; at 21 µM (top of the series)
With `Cc1ccc(S(=O)(=O)N(C)C[C@@H]2Oc3c(NC(=O)c4nc5ccccc5s4)cccc3C(=O)N([C@H](C)CO)C[C@H]2C)cc1` the activity change, negative = cytotoxicity was 44.2% (inactive).
In the case of `C[C@H]1CN([C@@H](C)CO)C(=O)c2cccc(NC(=O)c3ccncc3)c2O[C@H]1CN(C)Cc1ccc(Oc2ccccc2)cc1`, the activity change, negative = cytotoxicity is reported as 7.51% (inactive).
For `Cc1ccc(S(=O)(=O)Nc2ccc3c(c2)CC(=O)N([C@@H](C)CO)C[C@H](C)[C@@H](CN(C)S(=O)(=O)c2ccc(Cl)cc2)O3)cc1`, the activity change, negative = cytotoxicity was 11.7% (inactive).
In the case of `Cc1ccc(S(=O)(=O)N(C)C[C@H]2Oc3c(NC(=O)c4nc5ccccc5s4)cccc3C(=O)N([C@@H](C)CO)C[C@H]2C)cc1`, the activity change, negative = cytotoxicity is reported as -14.2% (inactive).
In the case of `C[C@H]1CN([C@@H](C)CO)C(=O)c2cccc(NC(=O)c3ccncc3)c2O[C@H]1CN(C)Cc1ccc2c(c1)OCO2`, the activity change, negative = cytotoxicity is reported as 4.17% (inactive).
In the case of `C[C@H]1CN([C@@H](C)CO)C(=O)c2cccc(NC(=O)c3ccncc3)c2O[C@@H]1CN(C)Cc1ccccc1`, the activity change, negative = cytotoxicity is reported as 10.2% (inactive).
In the case of `Cc1ccc(S(=O)(=O)N(C)C[C@H]2Oc3ccc(NS(=O)(=O)c4ccc(Cl)cc4)cc3CC(=O)N([C@@H](C)CO)C[C@@H]2C)cc1`, the activity change, negative = cytotoxicity is reported as -2.46% (inactive).
With `C[C@@H]1CN([C@@H](C)CO)C(=O)c2cccc(NC(=O)c3ccncc3)c2O[C@@H]1CN(C)Cc1ccc(Oc2ccccc2)cc1` the activity change, negative = cytotoxicity was 31.2% (inactive).
For `C[C@H]1CN([C@@H](C)CO)C(=O)Cc2cc(NS(=O)(=O)c3ccc(F)cc3)ccc2O[C@@H]1CN(C)Cc1ccc(Cl)c(Cl)c1`, the activity change, negative = cytotoxicity was -12.6% (inactive).
With `C[C@@H]1CN([C@H](C)CO)C(=O)c2cccc(NC(=O)c3ccncc3)c2O[C@H]1CN(C)Cc1ccc(C(F)(F)F)cc1` the activity change, negative = cytotoxicity was -18.8% (inactive).
